Consider eleven molecules from patent US20070015759A1, “Metasubstituted thiazolidinones, their manufacture and use as a drug” (priority 2004, published 2007).

Experiment [1] has as its system human MaTu breast tumor cells. Kind of experiment: Proliferation assay (crystal violet staining). It is filed as cell-based. Conditions: 96 h, incubated for 4 days with test substance, read-out: Inhibition of tumor cell proliferation (MaTu) IC50. The method, then: Cultivated human MaTu breast tumor cells were spread on plates to a thickness of 5000 cells per measuring point in a 96-hole multititerplate in 200 μl of the appropriate growth medium. After 24 hours the cells of one plate (the zero-point plate) were stained with crystal violet (see below), while the medium of the other plates was replaced by fresh culture medium (200 μl), to which was added the test substances in various concentrations (0 μM and in the range of 0.01 to 30 μm; the final concentration of the dimethylsulfoxide solvent was 0.5%). The cells were incubated for 4 days in the presence of the test substances. The cell proliferation was determined by the staining of the cells with crystal violet. The cells were fixed by the addition of 20 μl per measuring point of an 11% glutaraldehyde solution for 15 minutes at room temperature. After the fixed cells were washed three times with water, the plates were dried at room temperature. The cells were stained by the addition of 100 μl per measuring point of a 0.1% crystal violet solution (pH set at pH3 through the addition of acetic acid). After the fixed cells were washed three times with water, the plates were dried at room temperature. The coloring was dissolved by the addition of 100 μl per measuring point of a 10% acetic acid solution. Extinction was determined photometrically at a wave length of 595 nm. The percentage change of the cell growth was calculated by normalizing the measured values at the extinction value of the zero-point plate (=0%) and the extinction of the untreated cells (0 μM) (=100%).

The target of experiment [2] is T1, Recombinant human Plk-1 (6×His) (Homo sapiens, UniProt P53350).
T1 construct: 6xHis; made in house; host or cells: Hi5 insect cells, baculovirus
Kind of experiment: PLK enzyme assay (33P-γ-ATP incorporation into biotin casein, SPA beads). It is filed as biochemical. The conditions noted are these: 0.5 μM ATP, 0.7 μM casein, 90 minutes at room temperature, read-out: Inhibition PLK-1 IC50. The method, then:
Recombinant human Plk-1 (6×His) was purified from insect cells (Hi5) infected with a baculovirus.
10 ng (recombinant created, purified) PLK enzyme is incubated for 90 minutes at room temperature with biotin casein and 33P-γ-ATP as a sub-stratum in a volume of 15 μl in 384 well Greiner Small Volume Microtiterplates (final concentration in buffer: 660 ng/ ml PLK; 0.7 μM Casein, 0.5 μM ATP incl. 400 nCi/ml 33P-γ-ATP; 10 mM MgCl2, 1 mM MnCl2; 0.01% NP40; 1 mM DTT, Protease inhibitors; 0.1 mM Na2VO3 in 50 mM HEPES pH 7.5). At the end of the reaction a 5 μl stop solution (500 μM ATP; 500 mM EDTA; 1% triton ×100; 100 mg/ ml streptavidin coated SPA Beads in PBS) was added. After the microtiter plate is closed with foil, the beads are sedimented through centrifugation (10 min., 1500 rpm). The fixing of the 33P-γ-ATP in casein was set as a measure of the enzyme activity by β-Counting.
Test substances were introduced in various concentrations (0 μM, and in the range of 0.01-30 μM). The final concentration of the dimethylsulfoxide solvent in all concentrations amounted to 1.5%.

Each structure is given as a SMILES string.

T1 sequence (P53350 whole entry): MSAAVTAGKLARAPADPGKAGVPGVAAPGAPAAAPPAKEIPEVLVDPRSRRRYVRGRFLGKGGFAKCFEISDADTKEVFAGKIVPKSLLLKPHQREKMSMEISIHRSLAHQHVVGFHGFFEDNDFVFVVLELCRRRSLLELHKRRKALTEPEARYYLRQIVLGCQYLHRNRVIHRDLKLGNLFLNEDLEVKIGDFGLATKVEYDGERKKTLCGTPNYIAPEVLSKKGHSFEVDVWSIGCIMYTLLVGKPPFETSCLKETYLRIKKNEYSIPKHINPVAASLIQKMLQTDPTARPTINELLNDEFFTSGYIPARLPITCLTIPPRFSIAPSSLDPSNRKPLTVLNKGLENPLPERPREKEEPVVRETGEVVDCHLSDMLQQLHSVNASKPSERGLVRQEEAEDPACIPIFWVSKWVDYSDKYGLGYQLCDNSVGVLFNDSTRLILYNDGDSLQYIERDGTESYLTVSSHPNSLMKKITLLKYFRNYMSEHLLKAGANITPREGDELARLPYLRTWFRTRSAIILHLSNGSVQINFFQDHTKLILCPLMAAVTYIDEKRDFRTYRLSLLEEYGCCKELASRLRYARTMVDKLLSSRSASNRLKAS

Take `CCn1c(=C(C#N)C(=O)NCC(F)(F)F)sc(=CNc2cccc(CCN3CCCC3)c2)c1=O` (mixture of isomers) [Example 30, 2-Cyano-2-[3-ethyl-4-oxo-5-[1-[3-(2-pyrrolidin-1-yl-ethyl)-phenylamino]-meth-(E/Z)-ylidene]-thiazolidin-(2-(E or Z))-ylidene]-N-(2,2,2-trifluoro-ethyl)-acetamide]: the IC50 in experiment [1] was found to be 200 nM; in experiment [2], 16 nM.

Consider `CCn1c(=C(C#N)C(=O)NCC(F)(F)F)sc(=CNc2cccc(NC(=O)C(C)(C)C)n2)c1=O` (mixture of isomers) [Example 41, 2-Cyano-2-[5-[1-[6-(2,2-dimethyl-propionylamino)-pyridin-2-ylamino]-meth-(E/Z)-ylidene]-3-ethyl-4-oxo-thiazolidin-(2-(E or Z))-ylidene]-N-(2,2,2-trifluoro-ethyl)-acetamide], for which the IC50 in experiment [1] is 830 nM; in experiment [2] it was 20 nM.

Regarding `CCNC(=O)C(C#N)=c1sc(=CNc2cccc(NC(=O)CN3CCCC3)c2)c(=O)n1CC` (mixture of isomers) [Example 55, 2-Cyano-N-ethyl-2-[3-ethyl-4-oxo-5-[1-[3-(2-pyrrolidin-1-yl-acetylamino)-phenylamino]-meth-(E/Z)-ylidene]-thiazolidin-(2-(E or Z))-ylidene]-acetamide], the IC50 in experiment [1] was found to be 780 nM; in experiment [2], 150 nM.

Consider `C#CCNC(=O)C(C#N)=c1sc(=CNc2ccc(F)c(NC(=O)C(C)(C)C)c2)c(=O)n1CC` (mixture of isomers) [Example 63, 2-Cyano-2-[5-[1-[3-(2,2-dimethyl-propionylamino)-4-fluoro-phenylamino]-meth-(E/Z)-ylidene]-3-ethyl-4-oxo-thiazolidin-(2-(E or Z))-ylidene]-N-prop-2-ynyl-acetamide], for which the IC50 came out at 650 nM in experiment [1] and 100 nM in experiment [2].

For the molecule `C#CCNC(=O)C(C#N)=c1sc(=CNc2cccc(OCCN(C)C)c2)c(=O)n1CC` (mixture of isomers) [Example 126, 2-Cyano-2-[5-[1-[3-(2-dimethylamino-ethoxy)-phenylamino]-meth-(E/Z)-ylidene]-3-ethyl-4-oxo-thiazolidin-(2Z or E)-ylidene]-N-prop-2-ynyl-acetamide], the values for the IC50 in experiment [1] and in experiment [2] were 590 nM and 22 nM, respectively.

For the molecule `CCn1c(=C(C#N)C(=O)NCC(F)F)sc(=CNc2cccc(OCCN(C)C)c2)c1=O` (mixture of isomers) [Example 127, 2-Cyano-N-(2,2-difluoro-ethyl)-2-[5-[1-[3-(2-dimethylamino-ethoxy)-phenylamino]-meth-(E/Z)-ylidene]-3-ethyl-4-oxo-thiazolidin-(2-(E or Z))-ylidene]-acetamide], the IC50 in experiment [1] turned out to be 330 nM; in experiment [2], 24 nM.

Take `C#CCNC(=O)C(C#N)=c1sc(=CNc2ccc(OCCN(C)C)cc2)c(=O)n1CC` [Comparison 307 from PCT/EP2004/ 012242, reference compound]: the figures for the IC50 in experiment [1] and in experiment [2] were 1700 nM and 71 nM, respectively.

With `CCn1c(=C(C#N)C(=O)NCC(F)F)sc(=CNc2ccc(OCCN(C)C)cc2)c1=O` [Comparison 310 from PCT/EP2004/ 012242, reference compound], the IC50 was 5600 nM in experiment [1] and 74 nM in experiment [2].

`C#CCNC(=O)C(C#N)=c1sc(=CNc2ccc(C(=O)NCCN3CCCC3)c(NC(=O)C(C)(C)C)c2)c(=O)n1CC` [Comparison 323 from PCT/EP2004/ 012242, reference compound]: the IC50 in experiment [1] was 2500 nM; in experiment [2] it was 140 nM.

As for `CCn1c(=C(C#N)C(=O)NCC(F)(F)F)sc(=CNc2ccc(C(=O)NCCN3CCCC3)c(NC(=O)C(C)(C)C)c2)c1=O` [Comparison 326 from PCT/EP2004/ 012242, reference compound], the results for the IC50 in experiment [1] and in experiment [2] were 1600 nM and 73 nM, respectively.

As to `CCn1c(=C(C#N)C(=O)NCC(F)(F)F)sc(=CNc2ccc(CCN3CCCC3)cc2)c1=O` [Comparison 527 from PCT/EP2004/ 012242, reference compound], the IC50 in experiment [1] was 2800 nM.
